Data from patent publication US20180148418A1, “AMIDO-SUBSTITUTED CYCLOHEXANE DERIVATIVES” (Bayer Pharma Aktiengesellschaft, priority 2015, published 2018).

Columns and labels:
TNKS2 = molecular target: T1, TNKS2 (Homo sapiens, UniProt Q9H2K2); test: TNKS2 Assay B (auto-parsylation, [3H]-NAD+ SPA); type: biochemical; conditions: 6 nM TNKS2, auto-parsylation, over night at room temperature
T1 construct: purchased BPS Bioscience, San Diego, USA 80572 (TNKS2 Histone Ribosylation Assay Kit)
T1 sequence (Q9H2K2 1-1166): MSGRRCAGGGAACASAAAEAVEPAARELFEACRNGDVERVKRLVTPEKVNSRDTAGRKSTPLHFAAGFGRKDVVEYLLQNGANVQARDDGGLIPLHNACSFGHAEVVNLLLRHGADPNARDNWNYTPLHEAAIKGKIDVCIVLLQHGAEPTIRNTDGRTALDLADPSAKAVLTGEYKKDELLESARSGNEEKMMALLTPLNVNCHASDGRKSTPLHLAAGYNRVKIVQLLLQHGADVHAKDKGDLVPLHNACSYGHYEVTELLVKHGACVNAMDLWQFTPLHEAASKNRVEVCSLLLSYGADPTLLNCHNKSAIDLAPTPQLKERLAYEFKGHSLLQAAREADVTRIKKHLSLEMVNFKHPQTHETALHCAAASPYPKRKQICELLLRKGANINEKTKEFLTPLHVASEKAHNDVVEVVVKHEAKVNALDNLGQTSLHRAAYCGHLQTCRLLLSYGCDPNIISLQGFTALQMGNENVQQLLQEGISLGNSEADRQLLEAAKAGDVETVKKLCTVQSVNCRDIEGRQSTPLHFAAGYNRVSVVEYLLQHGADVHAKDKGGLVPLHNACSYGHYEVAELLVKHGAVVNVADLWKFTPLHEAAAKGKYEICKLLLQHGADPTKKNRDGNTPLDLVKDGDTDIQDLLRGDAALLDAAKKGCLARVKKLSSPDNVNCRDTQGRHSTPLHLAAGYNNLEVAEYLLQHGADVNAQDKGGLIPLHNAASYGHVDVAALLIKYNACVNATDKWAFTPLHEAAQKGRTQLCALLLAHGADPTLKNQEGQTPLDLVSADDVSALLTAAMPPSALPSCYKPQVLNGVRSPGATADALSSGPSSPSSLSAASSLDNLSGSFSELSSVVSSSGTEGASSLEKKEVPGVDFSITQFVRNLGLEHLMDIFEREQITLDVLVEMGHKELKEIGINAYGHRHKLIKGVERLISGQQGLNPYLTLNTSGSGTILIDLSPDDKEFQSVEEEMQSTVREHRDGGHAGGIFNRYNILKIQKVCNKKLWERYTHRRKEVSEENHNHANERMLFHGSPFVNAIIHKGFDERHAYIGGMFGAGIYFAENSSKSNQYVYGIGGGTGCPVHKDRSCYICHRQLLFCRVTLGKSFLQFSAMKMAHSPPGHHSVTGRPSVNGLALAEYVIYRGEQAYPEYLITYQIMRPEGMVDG

[1] = tested on: wildtype Wnt signaling cascade; test: HEK293 TOP assay (Super TopFlash luciferase reporter, Wnt-3a stimulated); type: cell-based; conditions: Homo sapiens, HEK293, 16 h, HEK293 TOP reporter cells, Wnt3a at EC50, 16 hours
Outline: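 Compound series (50 μM down to 15 nM, 3.16-fold) diluted from DMSO 50-fold into CAFTY buffer, pH 7.4, 2 mM Ca^2+, 0.01% BSA, applied to Wnt-3a-stimulated HEK293 TopFlash and FOP reporter lines in parallel. Cells seeded 10000/well 24 h before; luciferase signal measured.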

Compound | IC50 (TNKS2) [nM] | IC50 [1] [nM]
Cc1ccccc1N(C)C(=O)[C@H]1CC[C@H](NC(=O)c2cnn3cccnc23)CC1 [Example 178, N-{trans-4-[methyl(2-methylphenyl)carbamoyl]cyclohexyl}pyrazolo[1,5-a]pyrimidine-3-carboxamide] | 230 | 560
C[C@]1(C(=O)Nc2ccc(F)cc2Cl)CC[C@H](NC(=O)c2cnn3cccnc23)CC1 [Example 179, N-{trans-4-[(2-chloro-4-fluorophenyl)carbamoyl]-4-methylcyclohexyl}pyrazolo[1,5-a]pyrimidine-3-carboxamide] | 330 | 410
C[C@]1(C(=O)Nc2ccc(F)cc2Cl)CC[C@@H](NC(=O)c2cnn3cccnc23)CC1 [Example 180, N-{cis-4-[(2-chloro-4-fluorophenyl)carbamoyl]-4-methylcyclohexyl}pyrazolo[1,5-a]pyrimidine-3-carboxamide] | > 10000 | 7600
CNC(=O)c1[nH]cnc1C(=O)N[C@H]1CC[C@@](C)(C(=O)Nc2ccc(F)cc2Cl)CC1 [Example 181, N^4-{cis-4-[(2-chloro-4-fluorophenyl)carbamoyl]-4-methylcyclohexyl}-N^5-methyl-1H-imidazole-4,5-dicarboxamide] | > 10000 | 9600
CNC(=O)c1nc[nH]c1C(=O)N[C@H]1CC[C@]2(CCN(c3ccc(F)cc3Cl)C2=O)CC1 [Example 182, N^5-[(cis)-2-(2-chloro-4-fluorophenyl)-1-oxo-2-azaspiro[4.5]dec-8-yl]-N^4-methyl-1H-imidazole-4,5-dicarboxamide] | 1000 | 190
CC1CN(C(=O)c2nc[nH]c2C(=O)N[C@H]2CC[C@@]3(CCN(c4ccc(F)cc4Cl)C3=O)CC2)CCS(=O)(=O)C1 (stereo partly drawn) [Example 183, N-[(trans)-2-(2-chloro-4-fluorophenyl)-1-oxo-2-azaspiro[4.5]dec-8-yl]-4-[(6-methyl-1,1-dioxido-1,4-thiazepan-4-yl)carbonyl]-1H-imidazole-5-carboxamide] | 400 | 210
CN1CC2(CCN(C(=O)c3nc[nH]c3C(=O)N[C@H]3CC[C@@]4(CCN(c5ccc(F)cc5Cl)C4=O)CC3)C2)C1 [Example 184, N-[(trans)-2-(2-chloro-4-fluorophenyl)-1-oxo-2-azaspiro[4.5]dec-8-yl]-4-[(2-methyl-2,6-diazaspiro[3.4]oct-6-yl)carbonyl]-1H-imidazole-5-carboxamide] | 6.2 | 21
CN1CC2(C1)CN(C(=O)c1nc[nH]c1C(=O)N[C@H]1CC[C@@]3(CCN(c4ccc(F)cc4Cl)C3=O)CC1)C2 [Example 185, N-[(trans)-2-(2-chloro-4-fluorophenyl)-1-oxo-2-azaspiro[4.5]dec-8-yl]-4-[(6-methyl-2,6-diazaspiro[3.3]hept-2-yl)carbonyl]-1H-imidazole-5-carboxamide] | 1.7 | 6.1
NC(=O)c1nc[nH]c1C(=O)N[C@H]1CC[C@@]2(CCN(c3ccc(F)cc3Cl)C2=O)CC1 [Example 186, N^5-[(trans)-2-(2-chloro-4-fluorophenyl)-1-oxo-2-azaspiro[4.5]dec-8-yl]-1H-imidazole-4,5-dicarboxamide] | 7.4 | 2.1
CN1CC(NC(=O)c2nc[nH]c2C(=O)N[C@H]2CC[C@@]3(CCN(c4ccc(F)cc4Cl)C3=O)CC2)C1 [Example 187, N^5-[(trans)-2-(2-chloro-4-fluorophenyl)-1-oxo-2-azaspiro[4.5]dec-8-yl]-N^4-(1-methylazetidin-3-yl)-1H-imidazole-4,5-dicarboxamide] | 4.3 | 5.9
O=C(N[C@H]1CC[C@@]2(CCN(c3ccc(F)cc3Cl)C2=O)CC1)c1nc[nH]c1C(=O)NCC(F)(F)F [Example 195, N^4-[(trans)-2-(2-chloro-4-fluorophenyl)-1-oxo-2-azaspiro[4.5]dec-8-yl]-N^5-(2,2,2-trifluoroethyl)-1H-imidazole-4,5-dicarboxamide] | 7.1 | 1.3
CNC(=O)c1nc[nH]c1C(=O)N[C@H]1CC[C@@]2(CCN(c3cc(F)c(F)cc3Cl)C2=O)CC1 [Example 196, N^5-[(trans)-2-(2-chloro-4,5-difluorophenyl)-1-oxo-2-azaspiro[4.5]dec-8-yl]-N^4-methyl-1H-imidazole-4,5-dicarboxamide] | 2.4 | 0.74
CCNC(=O)c1nc[nH]c1C(=O)N[C@H]1CC[C@@]2(CCN(c3cc(F)c(F)cc3Cl)C2=O)CC1 [Example 197, N^5-[(trans)-2-(2-chloro-4,5-difluorophenyl)-1-oxo-2-azaspiro[4.5]dec-8-yl]-N^4-ethyl-1H-imidazole-4,5-dicarboxamide] | 2.1 | 0.74
CC(C)NC(=O)c1nc[nH]c1C(=O)N[C@H]1CC[C@@]2(CCN(c3cc(F)c(F)cc3Cl)C2=O)CC1 [Example 198, N^5-[(trans)-2-(2-chloro-4,5-difluorophenyl)-1-oxo-2-azaspiro[4.5]dec-8-yl]-N^4-(propan-2-yl)-1H-imidazole-4,5-dicarboxamide] | 3.1 | 1.7
O=C(NC1CC1)c1nc[nH]c1C(=O)N[C@H]1CC[C@@]2(CCN(c3cc(F)c(F)cc3Cl)C2=O)CC1 [Example 199, N^5-[(trans)-2-(2-chloro-4,5-difluorophenyl)-1-oxo-2-azaspiro[4.5]dec-8-yl]-N^4-cyclopropyl-1H-imidazole-4,5-dicarboxamide] | 3 | 0.98
O=C(N[C@H]1CC[C@@]2(CCN(c3cc(F)c(F)cc3Cl)C2=O)CC1)c1[nH]cnc1C(=O)N1CC(F)C1 [Example 200, N-[(trans)-2-(2-chloro-4,5-difluorophenyl)-1-oxo-2-azaspiro[4.5]dec-8-yl]-4-[(3-fluoroazetidin-1-yl)carbonyl]-1H-imidazole-5-carboxamide] | 2.6 | 0.17
O=C(NCC(F)(F)F)c1nc[nH]c1C(=O)N[C@H]1CC[C@@]2(CCN(c3cc(F)c(F)cc3Cl)C2=O)CC1 [Example 201, N^5-[(trans)-2-(2-chloro-4,5-difluorophenyl)-1-oxo-2-azaspiro[4.5]dec-8-yl]-N^4-(2,2,2-trifluoroethyl)-1H-imidazole-4,5-dicarboxamide] | 2.2 | 0.54
COCCNC(=O)c1nc[nH]c1C(=O)N[C@H]1CC[C@@]2(CCN(c3cc(F)c(F)cc3Cl)C2=O)CC1 [Example 202, N^5-[(trans)-2-(2-chloro-4,5-difluorophenyl)-1-oxo-2-azaspiro[4.5]dec-8-yl]-N^4-(2-methoxyethyl)-1H-imidazole-4,5-dicarboxamide] | 2.9 | 0.55
CNC(=O)c1nc[nH]c1C(=O)N[C@H]1CC[C@H](C(=O)N(C)c2ccccc2C)CC1 [Example 203, N^4-methyl-N^5-{trans-4-[methyl(2-methylphenyl)carbamoyl]cyclohexyl}-1H-imidazole-4,5-dicarboxamide] | 480 | 25000
O=C(N[C@H]1CC[C@H](C(=O)Nc2ccc(F)cc2Cl)CC1)c1cnn2ccccc12 [Example 205, N-{trans-4-[(2-chloro-4-fluorophenyl)carbamoyl]cyclohexyl}pyrazolo[1,5-a]pyridine-3-carboxamide] | 2500 | 500
O=C(N[C@H]1CC[C@H](C(=O)Nc2ccc(F)cc2Cl)CC1)c1cnc2ccccn12 [Example 206, N-{trans-4-[(2-chloro-4-fluorophenyl)carbamoyl]cyclohexyl}imidazo[1,2-a]pyridine-3-carboxamide] | > 10000 | 500
